Results on 4 compounds are retold here after ChEMBL document CHEMBL4177741, “NOTA analogue: A first dithiocarbamate inhibitor of metallo-β-lactamases” (Bioorg Med Chem Lett, 2018).

The test system of data set [1] is Citrobacter freundii. The data set can be described thus: Inhibition of NDM1 in Citrobacter freundii clinical isolates assessed as potentiation of meropenem-induced antibacterial activity by measuring meropenem MIC at 32 ug/ml incubated for 16 to 18 hrs by broth microdilution method. Background: Broth dilution looks for growth in wells or tubes with falling amounts of substance.

Data set [2] has as its system Proteus mirabilis. The experiment in a line: (§1) Inhibition of NDM1 in Proteus mirabilis clinical isolates assessed as potentiation of meropenem-induced antibacterial activity by measuring meropenem MIC at 32 ug/ml incubated for 16 to 18 hrs by broth microdilution method.
Data set [3] relates to Proteus mirabilis. The description is as §1. This is another data set of the same source.
For data set [4], the system named is Proteus mirabilis. The description is as §1. This is another data set of the same source.
Data set [5] concerns Escherichia coli. The data set can be described thus: Effect on cell growth of Escherichia coli expressing NDM1 assessed as cell growth level. It counts as organism-based.
For data set [6], the system named is Escherichia coli. The data set can be described thus: Effect on cell growth of Escherichia coli expressing NDM1 incubated for 16 to 18 hrs by CLSI protocol based method. Format: organism-based.
Data set [7] addresses Beta-lactamase NDM-1 (Escherichia coli) (UniProt E5KIY2). The data set can be described thus: Inhibition of NDM1 in Escherichia coli assessed as potentiation of 0.125 ug/ml meropenem-induced antibacterial activity by measuring bacterial count at 32 ug/ml incubated for 3 hrs by time-dependent killing assay (reference value: […]).
The target in data set [8] is T1, Beta-lactamase NDM-1 (Escherichia coli, UniProt E5KIY2).
Description: Inhibition of NDM1 in Escherichia coli BL21 (DE3) using MEPM substrate incubated for 15 mins by UV spectroscopy
The target of data set [9] is T1, Beta-lactamase NDM-1. This is another data set of the same source.
Description: Non-competitive inhibition of NDM1 in Escherichia coli BL21 (DE3) using MEPM substrate incubated for 15 mins by UV spectroscopy based L-B plot
In data set [10] the target is Beta-lactamase NDM-1 (Escherichia coli) (UniProt E5KIY2).
Description: Inhibition of NDM1 in Escherichia coli clinical isolates assessed as potentiation of meropenem-induced antibacterial activity by measuring meropenem MIC at 32 ug/ml incubated for 16 to 18 hrs by broth microdilution method (Rvb = 80 ug/ml)
Data set [11] shares this target. The source holds these as a separate data set.
Data set [12] shares this target. The source holds these as a separate data set.
Description: Inhibition of NDM1 in Escherichia coli clinical isolates assessed as potentiation of meropenem-induced antibacterial activity by measuring meropenem MIC at 32 ug/ml incubated for 16 to 18 hrs by broth microdilution method (Rvb = 320 ug/ml)
Data set [13] concerns the target Metallo-beta-lactamase type 2 (Klebsiella pneumoniae) (UniProt C7C422).
Data set [14] has the same target. This is another data set of the same source.
Description: Inhibition of NDM1 in Klebsiella pneumoniae clinical isolates assessed as potentiation of meropenem-induced antibacterial activity by measuring meropenem MIC at 32 ug/ml incubated for 16 to 18 hrs by broth microdilution method (Rvb = 80 ug/ml)
In data set [15] the target is Beta-lactamase NDM-1 (Escherichia coli) (UniProt E5KIY2). This is another data set of the same source.
Description: Inhibition of NDM1 in Escherichia coli assessed as potentiation of meropenem-induced antibacterial activity by measuring meropenem inhibition zone at 0.1mol/L incubated for 16 to 18 hrs by CLSI protocol based disc diffusion method
For data set [16], the system named is Escherichia coli. The experiment in a line: Potentiation of meropenem-induced antibacterial activity in Escherichia coli expressing NDM1 assessed as meropenem inhibition zone incubated for 16 to 18 hrs by CLSI protocol based disc diffusion method (reference value: 10.76 mm). Format: functional. In general terms: A growth-free zone around the sample is the usual read-out of agar diffusion tests.

The test system of another data set is Erythrocyte. The data set can be described thus: Hemolytic activity in sheep RBCs at 10000 ug/ml incubated for 1 hr. It counts as ADME, cell-based, Ovis aries.
Data set [17] deals with HeLa. The experiment in a line: Cytotoxicity in human HeLa cells assessed as inhibition of cell growth at 64 ug/ml incubated for 24 hrs by calcein AM and propidium iodide staining based fluorescence microscopy.
Data set [18] deals with HeLa. The experiment in a line: Cytotoxicity in human HeLa cells assessed as inhibition of cell growth at 128 ug/ml incubated for 24 hrs by calcein AM and propidium iodide staining based fluorescence microscopy.
Data set [19] can be described thus: Cytotoxicity in human HeLa cells assessed as inhibition of cell growth at 1000 ug/ml incubated for 24 hrs by CCK8 assay. Format: cell-based. To be noted: read-out: GI. In general terms: Tetrazolium assays rely on reduction of a dye to a coloured formazan, in cell work by metabolically active cells.
The subject of data set [20] is Citrobacter freundii. To be noted: 64 ug/ml.
Description: Inhibition of NDM1 in Citrobacter freundii clinical isolates assessed as potentiation of meropenem-induced antibacterial activity by measuring meropenem MIC at 64 ug/ml incubated for 16 to 18 hrs by broth microdilution method
Data set [21] has as its system Proteus mirabilis. To be noted: 64 ug/ml.
Description: (§2) Inhibition of NDM1 in Proteus mirabilis clinical isolates assessed as potentiation of meropenem-induced antibacterial activity by measuring meropenem MIC at 64 ug/ml incubated for 16 to 18 hrs by broth microdilution method
Data set [22] relates to Proteus mirabilis. Conditions: 64 ug/ml. This is another data set of the same source.
Description: as §2
The test system of data set [23] is HeLa. The experiment in a line: Cytotoxicity in human HeLa cells assessed as inhibition of cell growth at 0.1% incubated for 24 hrs by calcein AM and propidium iodide staining based fluorescence microscopy. It counts as functional.

In brackets after ≈: the same amount, converted by molar mass. Activity calls are given as the source filed them. No cut-off for these calls is given here.

For `O=C(O)CN1CCN(CC(=O)O)CCN(CC(=O)O)CC1`, the MIC in the data set on Citrobacter freundii [1] was 0.06 µg/mL; with Proteus mirabilis [2], 0.5 µg/mL; with Proteus mirabilis [3] it was 2 µg/mL; in the data set on Proteus mirabilis [4], 0.5 µg/mL; in the data set on Escherichia coli [6], above 128 µg/mL; in data set [10], 0.125 µg/mL (≈ 0.412 µM). For the same compound, the MIC was below 0.03 µg/mL in data set [11], 0.125 µg/mL (≈ 0.412 µM) in data set [12], 1 µg/mL (≈ 3.3 µM) in [13] and 2 µg/mL (≈ 6.59 µM) in [14]. Further, the Activity in the data set on Escherichia coli [5] was 90%; in data set [7], 10000 to 1e+06 CFU/mL. This compound also displayed an IC50 against Beta-lactamase NDM-1 [8] of 110 nM. This compound yielded a Ki at Beta-lactamase NDM-1 [9] of 5110 nM.
The compound `O=C(O)CN(CCN(CC(=O)O)CC(=O)O)CC(=O)O` returned an IZ in [15] of 21.7 mm.
Regarding `S=C([S-])N1CCN(C(=S)[S-])CCN(C(=S)[S-])CC1.[Na+].[Na+].[Na+]`, in the data set on Escherichia coli [16], the “inhibition zone (IZ)” value is given as 15.9 mm. Besides, the MIC is 4 µg/mL in the data set with Citrobacter freundii [1]; 4 µg/mL with Proteus mirabilis [2]; above 16 µg/mL with Proteus mirabilis [3]; above 128 µg/mL with Escherichia coli [6]; 0.5 µg/mL in the data set with Citrobacter freundii [20]; above 16 µg/mL against Proteus mirabilis [21]. The compound also showed an MIC against Proteus mirabilis [22] of 4 µg/mL. Moreover, the Activity was 90% in the data set with Escherichia coli [5], “Non-Toxic” in the data set on Erythrocyte, “Non-Toxic” in the data set with HeLa [17] and “Non-Toxic” with HeLa [18]. For the same compound, the inhibition at 24 h, 1000 ug/ml in data set [19] amounted to 20%.
Regarding `CC(C)(C)CC(C)(C)c1ccc(OCCOCCOCCOCCOCCOCCOCCO)cc1`, the result with HeLa [23] was Active.

The IC50 is the concentration that gives 50% inhibition. Read a low IC50 as higher potency. One may read the Ki as the dissociation constant of the complex between target and ligand, obtained from inhibition or displacement. The low end stands for higher affinity, the high end for lower affinity.
